US11203610B2, “2′3′ cyclic dinucleotides with phosphonate bond activating the sting adaptor protein” (INSTITUTE OF ORGANIC CHEMISTRY AND BIOCHEMISTRY ASCR, V.V.I., priority 2017, dated 2021)

What was measured:
WT STING [1] = molecular target: T1, WT STING (Homo sapiens, UniProt Q86WV6, H232R); test: Differential Scanning Fluorimetry with WT STING; assay type: binding; set-up: truncated human WT STING or AQ STING (amino acid residues 140-343); 8xHis (N, cleaved yes); SUMO (N, cleaved yes); made in house; host or cells: E. coli Rosetta-gami B (DE3); settings: thermal shift vs STING apoprotein; 150 μM CDN; 0.1 mg/ml truncated human WT STING; SYPRO Orange; read-out: DSF ΔTm (° C.) WT STING
Description: (§1) WT STING and AQ STING Proteins
(§2) Purified PCR products were cleaved with restriction enzymes BamHI (cat. #R0136S, NEB, Ipswich, USA) and NotI (cat. #R0189S, NEB, Ipswich, USA) and cloned into the pSUMO vector linearized with the identical enzymes.
(§3) The resin was poured into a chromatography column, washed with 50 ml buffer A (50 mmol·l^−1 TrisCl (pH 8.0), 800 mmol·l^−1 NaCl, 3 mmol·l^−1 β-mercaptol; 10% glycerol; 20 mmol·l^−1 imidazole) and 8-His-SUMO tagged STING proteins were eluted with 15 ml buffer A containing 300 mmol·l^−1 imidazole. […] Proteins were concentrated with Amicon® Ultra-15 10 K device (cat. #UFC901008, Merck Millipore, Billerica, USA) and flash frozen in liquid N2.
(§4) Differential Scanning Fluorimetry with WT STING and AQ STING
(§5) 20 μL solutions of the reaction mixtures were pipetted in triplicates into 96 well optical reaction plates and thermal denaturation of samples were performed on real time PCR cycler (LightCycler® 480 Instrument II—Roche, Basel, Switzerland). The first derivative of the thermal denaturation curves was performed to calculate denaturing temperatures of STING—CDN complexes and STING apoproteins. The thermal shift for each CDN was calculated by subtracting the average denaturing temperature of STING apoprotein from the average denaturing temperature of STING CDN complex.
Target sequence in this assay (Q86WV6 140-343 H232R): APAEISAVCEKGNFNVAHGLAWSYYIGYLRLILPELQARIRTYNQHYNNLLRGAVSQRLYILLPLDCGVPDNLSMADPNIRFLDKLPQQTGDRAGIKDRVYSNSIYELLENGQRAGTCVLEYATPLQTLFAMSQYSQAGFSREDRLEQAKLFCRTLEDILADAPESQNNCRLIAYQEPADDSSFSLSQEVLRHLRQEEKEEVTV

WT STING [2] = molecular target: T1, WT STING; test: Digitonin assay using 293T wtSTING-FL reporter cells; assay type: cell-based; settings: 293T wtSTING-FL cells; 30 minutes in Digitonin buffer, then 5 hours; ISRE firefly luciferase reporter; 8-point dose-response curve; read-out: Digitonin assay EC50 (μmol · l^−1) WT STING
Excerpt: ISRE Reporter Plasmid (pGL64.27-4xISRE)
Two complementary oligonucleotides of the sequence […] […] […] […] […] The oligonucleotides were mixed in equal molar amounts, hybridized, and cleaved by restriction endonucleases HindIII (cat. #. R0104S, NEB, Ipswich, USA) and BglII (cat. #R0144S, NEB, Ipswich, USA). Ultimately, they were ligated into plasmid pGL4.27 (cat. #E6651, Promega, Madison, USA) linearized with the same enzymes. As result the sequence with four ISRE sites was placed upstream of the minimum promoter of firefly luciferase reporter gene.
After 5 minutes incubation at room temperature (RT), 250 μL of the mixture was added dropwise to the cells in one well. Cells were incubated 36 hours at 37° C. with 5% CO2, and then detached with 0.05% Trypsin and 0.22 g/L EDTA (both cat. #L0941, Biowest, Riverside, USA).
Transfected cells were seeded onto poly-D-lysine coated six well plates at density 50,000 cells per 1 cm^2 in DMEM medium with high glucose containing 10% heat inactivated FBS, 30 g/mL blasticidin (cat. #ant-bl-05, InvivoGen, San Diego, USA), 0.06 mg/ml Penicillin G and 0.1 mg/ml Streptomycin Sulfate (both cat. #. L0018, Biowest, Riverside, USA). The medium was replenished every 3-4 days until visible colonies of cells resistant to blasticidin were formed.
Blasticidin resistant cells stably expressing WT STING were further transfected with […] plasmid following the same procedure as described above. […] Homogeneous culture of stably double transfected cells was prepared by limiting dilution of cells in 96 well plates and wells with cells were selected that originated from a single cell.
The medium was removed next day and three fold serial dilutions of compounds in Digitonin buffer containing 50 mmol·l^−1 HEPES (cat. #H3375, Sigma Aldrich, Czech Republic) pH 7.0, 100 mmol·l^−1 KCl, 3 mmol·l^−1 MgCl2, 0.1 mmol·l^−1 DTT (cat. #D0632, Sigma Aldrich, Czech Republic), 85 mmol·l^−1 Sucrose (cat. #S7903, Sigma Aldrich, Czech Republic), 0.2% BSA (cat. #A2153, Sigma Aldrich, Czech Republic), 1 mmol·l^−1 ATP (cat. #A1852, Sigma Aldrich, Czech Republic), 0.1 mmol·l^−1 GTP (cat. #G8877, Sigma Aldrich, Czech Republic), and 10 μg/mL Digitonin A (cat. #D141, Sigma Aldrich, Czech Republic) were added to the cells. The buffer was removed after 30 minutes incubation at 37° C. with 5% CO2, the cells were washed once with 100 μl of cultivation medium, and 100 μl of medium was added to each well. The plates with cells were incubated for 5 hours at 37° C. with 5% CO2, 50 μl of the medium was removed and 30 μl of ONE-Glo™ Luciferase Assay System reagent (cat. #E6120, Promega, Madison, USA) was added to each well. Luminescence was read on Synergy H1 (Biotek, Winooski, USA).
Target sequence in this assay (Q86WV6 whole entry H232R, the tested form may be a part): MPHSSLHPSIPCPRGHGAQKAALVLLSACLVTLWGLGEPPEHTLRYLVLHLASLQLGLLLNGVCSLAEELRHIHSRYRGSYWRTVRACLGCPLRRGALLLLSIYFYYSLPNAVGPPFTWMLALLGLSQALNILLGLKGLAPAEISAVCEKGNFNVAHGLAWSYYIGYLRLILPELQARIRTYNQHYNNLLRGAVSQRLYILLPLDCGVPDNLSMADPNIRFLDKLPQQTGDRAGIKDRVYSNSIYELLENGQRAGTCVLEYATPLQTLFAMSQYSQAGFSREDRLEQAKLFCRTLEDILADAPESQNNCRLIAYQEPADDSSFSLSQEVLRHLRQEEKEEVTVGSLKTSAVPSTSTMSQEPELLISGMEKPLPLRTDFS

AQ STING (G230A-R293Q) = molecular target: T2, AQ STING (G230A-R293Q) (Homo sapiens, UniProt Q86WV6, G230A/H232R/R293Q); test: Differential Scanning Fluorimetry with AQ STING; assay type: binding; settings: thermal shift vs STING apoprotein; 150 μM CDN; 0.1 mg/ml truncated human AQ STING; SYPRO Orange; read-out: DSF ΔTm (° C.) AQ STING
T2 construct: truncated human WT STING or AQ STING (amino acid residues 140-343); 8xHis (N, cleaved yes); SUMO (N, cleaved yes); made in house; host or cells: E. coli Rosetta-gami B (DE3)
T2 sequence (Q86WV6 140-343 G230A/H232R/R293Q): as the sequence (Q86WV6 140-343 H232R) above, with G91A, R154Q counted along it
Description: as §1, §2, §3, §4, §5

`Nc1nc(N)c2ncn([C@@H]3O[C@@H]4COP(=O)(O)O[C@@H]5[C@H](O)[C@@H](OCP(=O)(O)O[C@H]4[C@H]3O)O[C@H]5n3cnc4c(=O)[nH]c(N)nc43)c2n1` [Compound 50, (1R,6R,8R,9R,10S,15R,17R,18S)-17-(2-amino-6-oxo-6,9-dihydro-1H-purin-9-yl)-8-(2,6-diamino-9H-purin-9-yl)-3,9,12,18-tetrahydroxy-2,4,7,11,14,16-hexaoxa-3λ^5,12λ^5-diphosphatricyclo[13.2.1.0^6,10]octadecane-3,12-dione] was tested, and the ΔTm at 150 µM (WT STING [1]) was 11.9 °C, the EC50 (WT STING [2]) was 20 nM and the ΔTm at 150 µM (AQ STING (G230A-R293Q)) was 17.5 °C.

For `CSc1ncnc2c1ncn2[C@@H]1O[C@@H]2COP(=O)(O)O[C@@H]3[C@H](O)[C@@H](OCP(=O)(O)O[C@H]2[C@H]1O)O[C@H]3n1cnc2c(=O)[nH]c(N)nc21` [Compound 51, (1R,6R,8R,9R,10S,15R,17R,18S)-17-(2-amino-6-oxo-6,9-dihydro-1H-purin-9-yl)-3,9,12,18-tetrahydroxy-8-[6-(methylsulfanyl)-9H-purin-9-yl]-2,4,7,11,14,16-hexaoxa-3λ^5,12λ^5-diphosphatricyclo[13.2.1.0^6,10]octadecane-3,12-dione], the ΔTm at 150 µM (WT STING [1]) was 8.6 °C, the EC50 (WT STING [2]) was 10 nM and the ΔTm at 150 µM (AQ STING (G230A-R293Q)) was 15.9 °C.

Work on `Nc1nc2c(ncn2[C@@H]2O[C@@H]3OCP(=O)(O)O[C@H]4[C@H](O)[C@H](n5cnc6c(N)nc(F)nc65)O[C@@H]4COP(=O)(O)O[C@@H]2[C@@H]3O)c(=O)[nH]1` [Compound 52, (1R,6R,8R,9S,10S,15R,17R,18S)-8-(6-amino-2-fluoro-9H-purin-9-yl)-17-(2-amino-6-oxo-6,9-dihydro-1H-purin-9-yl)-3,9,12,18-tetrahydroxy-2,4,7,11,14,16-hexaoxa-3λ^5,12λ^5-diphosphatricyclo[13.2.1.0^6,10]octadecane-3,12-dione] yielded a ΔTm at 150 µM (WT STING [1]) of 13.9 °C, an EC50 (WT STING [2]) of 30 nM and a ΔTm at 150 µM (AQ STING (G230A-R293Q)) of 20.1 °C.

Work on `C#Cc1cn([C@@H]2O[C@@H]3COP(=O)(O)O[C@@H]4[C@H](O)[C@@H](OCP(=O)(O)O[C@H]3[C@H]2O)O[C@H]4n2cnc3c(=O)[nH]c(N)nc32)c2ncnc(N)c12` [Compound 53, (1R,6R,8R,9R,10S,15R,17R,18S)-8-{4-amino-5-ethynyl-7H-pyrrolo[2,3-d]pyrimidin-7-yl}-17-(2-amino-6-oxo-6,9-dihydro-1H-purin-9-yl)-3,9,12,18-tetrahydroxy-2,4,7,11,14,16-hexaoxa-3λ^5,12λ^5-diphosphatricyclo[13.2.1.0^6,10]octadecane-3,12-dione] yielded a ΔTm at 150 µM (WT STING [1]) of 6.6 °C, an EC50 (WT STING [2]) of 40 nM and a ΔTm at 150 µM (AQ STING (G230A-R293Q)) of 12.9 °C.

For `Nc1nc2c(ncn2[C@@H]2O[C@@H]3OCP(=O)(O)O[C@H]4[C@@H](F)[C@H](n5cnc6c(N)nc(F)nc65)O[C@@H]4COP(=O)(O)O[C@@H]2[C@@H]3O)c(=O)[nH]1` [Compound 54, (1R,6R,8R,9R,10R,15R,17R,18S)-8-(6-amino-2-fluoro-9H-purin-9-yl)-17-(2-amino-6-oxo-6,9-dihydro-1H-purin-9-yl)-9-fluoro-3,12,18-trihydroxy-2,4,7,11,14,16-hexaoxa-3λ^5,12λ^5-diphosphatricyclo[13.2.1.0^6,10]octadecane-3,12-dione], the ΔTm at 150 µM (WT STING [1]) was 13 °C, the EC50 (WT STING [2]) was 12 nM and the ΔTm at 150 µM (AQ STING (G230A-R293Q)) was 19.9 °C.

`Nc1nc2c(ncn2[C@@H]2O[C@@H]3OCP(=O)(O)O[C@H]4C[C@H](n5cnc6c(N)ncnc65)O[C@@H]4COP(=O)(O)O[C@@H]2[C@@H]3O)c(=O)[nH]1` [Compound 55, (1R,6R,8R,10S,15R,17R,18S)-17-(2-amino-6-oxo-6,9-dihydro-1H-purin-9-yl)-8-(6-amino-9H-purin-9-yl)-3,12,18-trihydroxy-2,4,7,11,14,16-hexaoxa-3λ^5,12λ^5-diphosphatricyclo[13.2.1.0^6,10]octadecane-3,12-dione] was tested, and the ΔTm at 150 µM (WT STING [1]) was 15.2 °C, the EC50 (WT STING [2]) was 10 nM and the ΔTm at 150 µM (AQ STING (G230A-R293Q)) was 22.9 °C.

For `Nc1nc2c(ncn2[C@@H]2O[C@@H]3OCP(=O)(O)OC4C[C@H](n5cnc6c(N)nc(Cl)nc65)O[C@@H]4COP(=O)(O)OC2C3O)c(=O)[nH]1` (stereo partly drawn) [Compound 56, (1R,6R,8R,105,15R,17R,185)-8-(6-amino-2-chloro-9H-purin-9-yl)-17-(2-amino-6-oxo-6,9-dihydro-1H-purin-9-yl)-3,12,18-trihydroxy-2,4,7,11,14,16-hexaoxa-3λ^5,12λ^5-diphosphatricyclo[13.2.1.0^6,10]octadecane-3,12-dione], the ΔTm at 150 µM (WT STING [1]) was 9.5 °C, the EC50 (WT STING [2]) was 50 nM and the ΔTm at 150 µM (AQ STING (G230A-R293Q)) was 16.5 °C.

Compound `Nc1nc2c(nnn2[C@@H]2O[C@@H]3OCP(=O)(O)O[C@H]4[C@@H](O)[C@H](n5cnc6c(N)ncnc65)O[C@@H]4COP(=O)(O)O[C@@H]2[C@@H]3O)c(=O)[nH]1` [Compound 57, (1R,6R,8R,9R,10S,15R,17R,18S)-17-{5-amino-7-oxo-3H,6H,7H-[1,2,3]triazolo[4,5-d]pyrimidin-3-yl}-8-(6-amino-9H-purin-9-yl)-3,9,12,18-tetrahydroxy-2,4,7,11,14,16-hexaoxa-3λ^5,12λ^5-diphosphatricyclo[13.2.1.0^6,10]octadecane-3,12-dione] has a ΔTm at 150 µM (WT STING [1]) of 14.8 °C, an EC50 (WT STING [2]) of 20 nM and a ΔTm at 150 µM (AQ STING (G230A-R293Q)) of 22.2 °C.

In the case of `NC(=O)c1ncn([C@@H]2O[C@@H]3COP(=O)(O)O[C@@H]4[C@H](O)[C@@H](OCP(=O)(O)O[C@H]3[C@H]2O)O[C@H]4n2cnc3c(=O)[nH]c(N)nc32)c1N` [Compound 58, 5-amino-1-[(1R,6R,8R,9R,10S,15R,17R,18S)-17-(2-amino-6-oxo-6,9-dihydro-1H-purin-9-yl)-3,9,12,18-tetrahydroxy-3,12-dioxo-2,4,7,11,14,16-hexaoxa-3λ^5,12λ^5-diphosphatricyclo[13.2.1.0^6,10]octadecan-8-yl]-1H-imidazole-4-carboxamide], the ΔTm at 150 µM (WT STING [1]) is reported as 8.3 °C, the EC50 (WT STING [2]) is reported as 120 nM and the ΔTm at 150 µM (AQ STING (G230A-R293Q)) is reported as 11.9 °C.

`Nc1ncnc2c1ncn2[C@@H]1O[C@@H]2OCP(=O)(O)O[C@@H]3[C@H](O)[C@@H](COP(=O)(O)O[C@H]2[C@H]1O)C[C@H]3n1cnc2c(=O)[nH]cnc21` [Compound 59, (1S,6R,8R,9R,10S,15R,17R,18R)-8-(6-amino-9H-purin-9-yl)-3,9,12,18-tetrahydroxy-17-(6-oxo-6,9-dihydro-1H-purin-9-yl)-2,5,7,11,13-pentaoxa-3λ^5,12λ^5-diphosphatricyclo[13.2.1.0^6,10]octadecane-3,12-dione] gave a ΔTm at 150 µM (WT STING [1]) of 1.8 °C, an EC50 (WT STING [2]) of 1100 nM and a ΔTm at 150 µM (AQ STING (G230A-R293Q)) of 10 °C.
